Measurements taken from PubChem BioAssay (NCI).
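Assay format: 96-well plates, 48-hour exposure. TGI marks complete inhibition of growth.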

Legend:
Assay in all cases: NCI anticancer screen, dose series, 48 h
UO-31 renal = system: UO-31 renal
786-0 renal = system: 786-0 renal
MDA-MB-231 breast = system: MDA-MB-231 breast
HCT-116 colon = system: HCT-116 colon
UACC-62 melanoma = system: UACC-62 melanoma
DU-145 prostate = system: DU-145 prostate
PC-3 prostate = system: PC-3 prostate
K-562 leukemia = system: K-562 leukemia
RXF 393 renal = system: RXF 393 renal
HOP-62 NSCLC = system: HOP-62 NSCLC
OVCAR-8 ovarian = system: OVCAR-8 ovarian
RPMI-8226 leukemia = system: RPMI-8226 leukemia
NCI-H522 lung = system: NCI-H522 lung
OVCAR-3 ovarian = system: OVCAR-3 ovarian
NCI-H226 lung = system: NCI-H226 lung
CAKI-1 renal = system: CAKI-1 renal
T-47D breast = system: T-47D breast
NCI-H23 lung = system: NCI-H23 lung
SF-268 CNS = system: SF-268 CNS
SK-MEL-2 melanoma = system: SK-MEL-2 melanoma
SNB-19 CNS = system: SNB-19 CNS
SR leukemia = system: SR leukemia
MALME-3M melanoma = system: MALME-3M melanoma
SK-MEL-28 melanoma = system: SK-MEL-28 melanoma
MOLT-4 leukemia = system: MOLT-4 leukemia
ACHN renal = system: ACHN renal
SF-539 CNS = system: SF-539 CNS
MDA-N = system: MDA-N
HCT-15 colon = system: HCT-15 colon
M14 melanoma = system: M14 melanoma
SF-295 CNS = system: SF-295 CNS
IGROV1 ovarian = system: IGROV1 ovarian
MDA-MB-435 = system: MDA-MB-435
EKVX NSCLC = system: EKVX NSCLC
LOX IMVI melanoma = system: LOX IMVI melanoma
SK-MEL-5 melanoma = system: SK-MEL-5 melanoma
HS 578T breast = system: HS 578T breast
NCI/ADR-RES ovarian = system: NCI/ADR-RES ovarian
HT29 colon = system: HT29 colon
SK-OV-3 ovarian = system: SK-OV-3 ovarian
CCRF-CEM leukemia = system: CCRF-CEM leukemia
A498 renal = system: A498 renal
OVCAR-5 ovarian = system: OVCAR-5 ovarian
KM12 colon = system: KM12 colon
U251 CNS = system: U251 CNS
BT-549 breast = system: BT-549 breast
OVCAR-4 ovarian = system: OVCAR-4 ovarian
MCF7 breast = system: MCF7 breast
A549 NSCLC = system: A549 NSCLC
SNB-75 CNS = system: SNB-75 CNS
HCC-2998 colon = system: HCC-2998 colon
COLO 205 colon = system: COLO 205 colon
SN12C renal = system: SN12C renal
TK-10 renal = system: TK-10 renal
HOP-92 NSCLC = system: HOP-92 NSCLC
UACC-257 melanoma = system: UACC-257 melanoma
SW-620 colon = system: SW-620 colon
NCI-H460 lung = system: NCI-H460 lung
HL-60(TB) leukemia = system: HL-60(TB) leukemia

`CCOC(=O)c1cn2c(n1)sc1cc(Cl)cc(Cl)c12` showed a TGI (UO-31 renal) of over 100 µM, a TGI (786-0 renal) of over 100 µM and a TGI (MDA-MB-231 breast) of over 100 µM. For the same compound, the TGI (HCT-116 colon) was over 100 µM, the TGI (UACC-62 melanoma) was over 100 µM and the TGI (DU-145 prostate) was over 100 µM. It also gave a TGI (PC-3 prostate) of over 100 µM, a TGI (K-562 leukemia) of over 100 µM and a TGI (RXF 393 renal) of over 100 µM. For the same compound, the TGI (HOP-62 NSCLC) was over 100 µM, the TGI (OVCAR-8 ovarian) was over 100 µM and the TGI (RPMI-8226 leukemia) was over 100 µM. The TGI (NCI-H522 lung) was over 100 µM, the TGI (OVCAR-3 ovarian) was over 100 µM and the TGI (NCI-H226 lung) was over 100 µM. The TGI (CAKI-1 renal) was over 100 µM, the TGI (T-47D breast) was over 100 µM and the TGI (NCI-H23 lung) was over 100 µM. It also gave a TGI (SF-268 CNS) of over 100 µM, a TGI (SK-MEL-2 melanoma) of over 100 µM and a TGI (SNB-19 CNS) of over 100 µM. For the same compound, the TGI (SR leukemia) was over 100 µM, the TGI (MALME-3M melanoma) was over 100 µM and the TGI (SK-MEL-28 melanoma) was over 100 µM. The TGI (MOLT-4 leukemia) was over 100 µM, the TGI (ACHN renal) was over 100 µM and the TGI (SF-539 CNS) was over 100 µM. It also gave a TGI (MDA-N) of over 100 µM, a TGI (HCT-15 colon) of over 100 µM and a TGI (M14 melanoma) of over 100 µM. For the same compound, the TGI (SF-295 CNS) was over 100 µM, the TGI (IGROV1 ovarian) was over 100 µM and the TGI (MDA-MB-435) was over 100 µM. It also gave a TGI (EKVX NSCLC) of over 100 µM, a TGI (LOX IMVI melanoma) of over 100 µM and a TGI (SK-MEL-5 melanoma) of over 100 µM. It also gave a TGI (HS 578T breast) of over 100 µM, a TGI (NCI/ADR-RES ovarian) of over 100 µM and a TGI (HT29 colon) of over 100 µM. The TGI (SK-OV-3 ovarian) was over 100 µM, the TGI (CCRF-CEM leukemia) was over 100 µM and the TGI (A498 renal) was over 100 µM. For the same compound, the TGI (OVCAR-5 ovarian) was over 100 µM, the TGI (KM12 colon) was over 100 µM and the TGI (U251 CNS) was over 100 µM. The TGI (BT-549 breast) was over 100 µM, the TGI (OVCAR-4 ovarian) was over 100 µM and the TGI (MCF7 breast) was over 100 µM. For the same compound, the TGI (A549 NSCLC) was over 100 µM, the TGI (SNB-75 CNS) was over 100 µM and the TGI (HCC-2998 colon) was over 100 µM. It also gave a TGI (COLO 205 colon) of over 100 µM, a TGI (SN12C renal) of over 100 µM and a TGI (TK-10 renal) of over 100 µM. It also gave a TGI (HOP-92 NSCLC) of over 100 µM, a TGI (UACC-257 melanoma) of over 100 µM and a TGI (SW-620 colon) of over 100 µM. The TGI (NCI-H460 lung) was over 100 µM.

Compound `COC1CC(OC2CCC3(C)C(=CCC4C3C(OC(C)=O)C(OC(=O)CC(C)C)C3(C)C(C(C)=O)CCC43O)C2)OC(C)C1OC1CC(OC)C(OC2CC(OC)C(OC3OC(C)C(OC4OC(CO)C(O)C(O)C4O)C(OC)C3O)C(C)O2)C(C)O1` (centres undefined) has a TGI (UO-31 renal) of over 75 µM, a TGI (786-0 renal) of over 75 µM and a TGI (MDA-MB-231 breast) of over 75 µM. The TGI (HCT-116 colon) was over 75 µM, the TGI (UACC-62 melanoma) was over 75 µM and the TGI (DU-145 prostate) was over 75 µM. It also gave a TGI (PC-3 prostate) of over 75 µM, a TGI (K-562 leukemia) of over 75 µM and a TGI (HOP-62 NSCLC) of over 75 µM. The TGI (OVCAR-8 ovarian) was over 75 µM, the TGI (RPMI-8226 leukemia) was over 75 µM and the TGI (NCI-H522 lung) was over 75 µM. The TGI (OVCAR-3 ovarian) was over 75 µM, the TGI (NCI-H226 lung) was over 75 µM and the TGI (CAKI-1 renal) was over 75 µM. For the same compound, the TGI (T-47D breast) was over 75 µM, the TGI (NCI-H23 lung) was over 75 µM and the TGI (SF-268 CNS) was over 75 µM. For the same compound, the TGI (SK-MEL-2 melanoma) was over 75 µM, the TGI (SNB-19 CNS) was over 75 µM and the TGI (SK-MEL-28 melanoma) was over 75 µM. For the same compound, the TGI (MOLT-4 leukemia) was over 75 µM, the TGI (ACHN renal) was over 75 µM and the TGI (SF-539 CNS) was over 75 µM. It also gave a TGI (MDA-N) of over 75 µM, a TGI (HCT-15 colon) of over 75 µM and a TGI (M14 melanoma) of over 75 µM. The TGI (SF-295 CNS) was over 75 µM, the TGI (IGROV1 ovarian) was over 75 µM and the TGI (MDA-MB-435) was over 75 µM. The TGI (EKVX NSCLC) was over 75 µM, the TGI (LOX IMVI melanoma) was over 75 µM and the TGI (SK-MEL-5 melanoma) was over 75 µM. It also gave a TGI (HS 578T breast) of over 75 µM, a TGI (NCI/ADR-RES ovarian) of over 75 µM and a TGI (HT29 colon) of over 75 µM. It also gave a TGI (SK-OV-3 ovarian) of over 75 µM, a TGI (CCRF-CEM leukemia) of over 7.5 µM and a TGI (A498 renal) of over 75 µM. For the same compound, the TGI (OVCAR-5 ovarian) was over 75 µM, the TGI (KM12 colon) was over 75 µM and the TGI (U251 CNS) was over 75 µM. For the same compound, the TGI (BT-549 breast) was over 75 µM, the TGI (OVCAR-4 ovarian) was over 75 µM and the TGI (MCF7 breast) was over 75 µM. The TGI (A549 NSCLC) was over 75 µM, the TGI (HL-60(TB) leukemia) was over 75 µM and the TGI (SNB-75 CNS) was over 75 µM. For the same compound, the TGI (HCC-2998 colon) was over 75 µM, the TGI (COLO 205 colon) was over 75 µM and the TGI (SN12C renal) was over 75 µM. The TGI (TK-10 renal) was over 75 µM, the TGI (HOP-92 NSCLC) was over 75 µM and the TGI (UACC-257 melanoma) was over 75 µM. The TGI (SW-620 colon) was over 75 µM and the TGI (NCI-H460 lung) was over 7.5 µM.
